Structures can show the parent of a compound that is named as a salt.
Biological target: T1, recombinant guanylate cyclase reporter cell line (Rattus norvegicus, UniProt P19686+P20595)
T1 construct: expressed in transfected cells; host or cells: recombinant reporter cell line
T1 sequence (P19686 1-690): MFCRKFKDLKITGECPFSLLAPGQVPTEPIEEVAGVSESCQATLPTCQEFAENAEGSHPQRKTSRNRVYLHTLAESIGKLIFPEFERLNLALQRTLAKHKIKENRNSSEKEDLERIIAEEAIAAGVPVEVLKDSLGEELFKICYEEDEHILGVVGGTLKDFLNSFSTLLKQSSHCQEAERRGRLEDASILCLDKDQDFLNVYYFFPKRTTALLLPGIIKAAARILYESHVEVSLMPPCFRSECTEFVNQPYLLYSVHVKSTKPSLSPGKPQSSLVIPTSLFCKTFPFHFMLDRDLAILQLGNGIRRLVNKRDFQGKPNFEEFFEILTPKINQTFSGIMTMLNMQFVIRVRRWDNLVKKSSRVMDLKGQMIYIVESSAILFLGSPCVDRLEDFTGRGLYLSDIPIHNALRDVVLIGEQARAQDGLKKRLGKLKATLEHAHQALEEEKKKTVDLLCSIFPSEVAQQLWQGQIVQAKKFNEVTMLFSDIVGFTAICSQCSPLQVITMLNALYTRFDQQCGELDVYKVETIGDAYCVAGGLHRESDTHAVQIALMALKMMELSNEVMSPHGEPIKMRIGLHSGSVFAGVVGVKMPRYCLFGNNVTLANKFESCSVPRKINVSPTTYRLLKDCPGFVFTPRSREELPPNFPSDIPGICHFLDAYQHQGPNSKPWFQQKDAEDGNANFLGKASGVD
T1 sequence (P20595 1-619): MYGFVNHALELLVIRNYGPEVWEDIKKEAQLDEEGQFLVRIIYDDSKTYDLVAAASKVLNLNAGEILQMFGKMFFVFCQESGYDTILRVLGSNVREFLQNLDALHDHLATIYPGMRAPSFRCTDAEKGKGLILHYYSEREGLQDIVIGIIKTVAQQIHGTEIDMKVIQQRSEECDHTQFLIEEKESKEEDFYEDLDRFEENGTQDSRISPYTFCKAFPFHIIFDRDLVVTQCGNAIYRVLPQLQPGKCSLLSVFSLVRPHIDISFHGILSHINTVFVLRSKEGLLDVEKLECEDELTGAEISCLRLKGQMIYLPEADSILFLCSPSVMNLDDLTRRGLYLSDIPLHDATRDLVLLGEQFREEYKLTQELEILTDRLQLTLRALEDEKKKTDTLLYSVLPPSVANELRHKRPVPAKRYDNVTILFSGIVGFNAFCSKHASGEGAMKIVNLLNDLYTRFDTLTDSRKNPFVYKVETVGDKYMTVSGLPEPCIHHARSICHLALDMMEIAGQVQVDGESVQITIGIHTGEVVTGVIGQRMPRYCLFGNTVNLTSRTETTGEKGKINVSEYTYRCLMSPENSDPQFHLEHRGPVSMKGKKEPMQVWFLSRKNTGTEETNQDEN
Assay: Action on recombinant guanylate cyclase reporter cell line
Format: cell-based
Settings: in some cases mean values from individual determinations
Method in brief: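 MEC values, meaning the lowest concentration producing a detectable response, were taken from a recombinant cyclase reporter cell assay. Where repeated, individual determinations were averaged.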

Row | Compound | MEC (minimal effective concentration)
1 | Cc1nc2c(OCc3c(F)cccc3F)cccn2c1C(=O)NC(CN)c1ccc(F)cc1F (stereo not drawn) [Example 21, ent-N-[2-Amino-1-(2,4-difluorophenyl)ethyl]-8-[(2,6-difluorobenzyl)oxy]-2-methylimidazo[1,2-a]-pyridine-3-carboxamide] | 0.30 µM
2 | Cc1nc2c(OCc3c(F)cccc3F)cc(Cl)cn2c1C(=O)NC(C)CN (stereo not drawn) [Example 22, ent-N-(1-aminopropan-2-yl)-6-chloro-8-[(2,6-difluorobenzyl)oxy]-2-methylimidazo[1,2-a]-pyridine-3-carboxamide] | 0.30 µM
3 | Cc1nc2c(OCc3c(F)cccc3F)cc(Cl)cn2c1C(=O)NC(C)(C)CN [Example 24, N-(1-amino-2-methylpropan-2-yl)-6-chloro-8-[(2,6-difluorobenzyl)oxy]-2-methylimidazo[1,2-a]pyridine-3-carboxamide] | 0.65 µM
4 | Cc1cc(OCc2c(F)cccc2F)c2nc(C)c(C(=O)NC(C)(C)CN)n2c1 [Example 26, N-(1-amino-2-methylpropan-2-yl)-8-[(2,6-difluorobenzyl)oxy]-2,6-dimethylimidazo[1,2-a]-pyridine-3-carboxamide] | 0.30 µM
5 | Cc1nc2c(OCc3c(F)cccc3F)cccn2c1C(=O)NC1CC2CCCC(C1)N2 (centres unmarked) [Example 27, N-(9-azabicyclo[3.3.1]non-3-yl)-8-[(2,6-difluorobenzyl)oxy]-2-methylimidazo[1,2-a]-pyridine-3-carboxamide] | 1.00 µM
6 | Cc1nc2c(OCc3c(F)cccc3F)cc(Cl)cn2c1C(=O)NCCC1(N)CCCCC1 [Example 33, N-[2-(1-Aminocyclohexyl)ethyl]-6-chloro-8-[(2,6-difluorobenzyl)oxy]-2-methylimidazo[1,2-a]-pyridine-3-carboxamide] | 0.30 µM
7 | CC[C@@H](N)CNC(=O)c1c(C)nc2c(OCc3c(F)cccc3F)cc(Cl)cn12 [Example 35, ent-N-[(2R)-2-aminobutyl]-6-chloro-8-[(2,6-difluorobenzyl)oxy]-2-methyl-imidazo[1,2-a]-pyridine-3-carboxamide] | 1.00 µM
8 | Cc1nc2c(OCc3c(F)cccc3F)cc(Cl)cn2c1C(=O)NCCN [Example 36, N-(2-aminoethyl)-6-chloro-8-[(2,6-difluorobenzyl)oxy]-2-methylimidazo[1,2-a]-pyridine-3-carboxamide] | 1.00 µM
9 | Cc1nc2c(OCc3c(F)cccc3F)cc(Cl)cn2c1C(=O)NCCCN [Example 37, N-(3-aminopropyl)-6-chloro-8-[(2,6-difluorobenzyl)oxy]-2-methylimidazo[1,2-a]pyridine-3-carboxamide] | 1.00 µM
10 | Cc1nc2c(OCc3c(F)cccc3F)cccn2c1C(=O)NCC1(N)CC1 [Example 38, N-[(1-aminocyclopropyl)methyl]-8-[(2,6-difluorobenzyl)oxy]-2-methylimidazo[1,2-a]-pyridine-3-carboxamide] | 0.40 µM
11 | Cc1nc2c(OCc3c(F)cccc3F)cc(Cl)cn2c1C(=O)NCC1(N)CC1 [Example 39, N-[(1-aminocyclopropyl)methyl]-6-chloro-8-[(2,6-difluorobenzyl)oxy]-2-methylimidazo[1,2-a]pyridine-3-carboxamide] | 0.10 µM
12 | Cc1cc(OCc2c(F)cccc2F)c2nc(C)c(C(=O)NCC3(N)CC3)n2c1 [Example 40, N-[(1-aminocyclopropyl)methyl]-8-[(2,6-difluorobenzyl)oxy]-2,6-dimethylimidazo[1,2-a]-pyridine-3-carboxamide] | 0.10 µM
13 | Cc1nc2c(OCc3c(F)cccc3F)cccn2c1C(=O)NCC1(N)CCCC1 [Example 41, N-[(1-aminocyclopentyl)methyl]-8-[(2,6-difluorobenzyl)oxy]-2-methylimidazo[1,2-a]-pyridine-3-carboxamide] | 0.30 µM
14 | Cc1nc2c(OCc3c(F)cccc3F)cc(Cl)cn2c1C(=O)NCC1(N)CCCC1 [Example 42, N-[(1-aminocyclopentyl)methyl]-6-chloro-8-[(2,6-difluorobenzyl)oxy]-2-methylimidazo[1,2-a]pyridine-3-carboxamide] | 1.00 µM
15 | Cc1nc2c(OCC3CCCCC3)cccn2c1C(=O)NC(CN)c1ccc(F)cc1F (stereo not drawn) [Example 45, ent-N-[2-Amino-1-(2,4-difluorophenyl)ethyl]-8-(cyclohexylmethoxy)-2-methylimidazo[1,2-a]-pyridine-3-carboxamide] | 1.00 µM
16 | Cc1cc(OCc2c(F)cccc2F)c2nc(C)c(C(=O)NC(C)CN)n2c1 (stereo not drawn) [Example 48, ent-N-(1-Aminopropan-2-yl)-8-[(2,6-difluorobenzyl)oxy]-2,6-dimethylimidazo[1,2-a]pyridine-3-carboxamide] | 1.00 µM
17 | Cc1cc(OCc2c(F)cccc2F)c2nc(C)c(C(=O)NC(CN)c3ccc(F)c(F)c3)n2c1 (stereo not drawn) [Example 51, ent-N-[2-Amino-1-(3,4-difluorophenyl)ethyl]-8-[(2,6-difluorobenzyl)oxy]-2,6-dimethylimidazo-[1,2-a]pyridine-3-carboxamide] | 0.20 µM

Now from value to compound:

Row | MEC (minimal effective concentration) | Compound
18 | 0.30 µM | Cc1nc2c(OCc3c(F)cccc3F)cc(F)cn2c1C(=O)NC(CN)c1ccc(F)c(F)c1 (stereo not drawn) [Example 53, ent-N-[2-Amino-1-(3,4-difluorophenyl)ethyl]-8-[(2,6-difluorobenzyl)oxy]-6-fluoro-2-methyl-imidazo[1,2-a]pyridine-3-carboxamide]
19 | 1.00 µM | NCC(NC(=O)c1c(C2CC2)nc2c(OCc3c(F)cccc3F)cccn12)c1ccc(F)c(F)c1 (stereo not drawn) [Example 54, ent-N-[2-amino-1-(3,4-difluorophenyl)ethyl]-2-cyclopropyl-8-[(2,6-difluorobenzyl)oxy]-imidazo[1,2-a]pyridine-3-carboxamide]
20 | 2.00 µM | NCC(NC(=O)c1cnc2c(OCc3c(F)cccc3F)cccn12)c1ccc(F)c(F)c1 (stereo not drawn) [Example 55, ent-N-[2-amino-1-(3,4-difluorophenyl)ethyl]-8-[(2,6-difluorobenzyl)oxy]imidazo[1,2-a]pyridine-3-carboxamide dihydrochloride]
21 | 0.30 µM | Cc1nc2c(OCc3c(F)cccc3F)cccn2c1C(=O)N[C@H]1CCCNC1 [Example 60, 8-[(2,6-difluorobenzyl)oxy]-2-methyl-N-[(3S)-piperidin-3-yl]imidazo[1,2-a]pyridine-3-carboxamide dihydrochloride]
22 | 3.00 µM | Cc1nc2c(OCc3c(F)cccc3F)cccn2c1C(=O)N[C@H]1CCNC1 [Example 61, 8-[(2,6-Difluorobenzyl)oxy]-2-methyl-N-[(3S)-pyrrolidin-3-yl]imidazo[1,2-a]pyridine-3-carboxamide]
23 | 0.30 µM | CCCC[C@H](CN1CCOCC1)NC(=O)c1c(C)nc2c(OCc3c(F)cccc3F)cccn12 [Example 64, ent-8-[(2,6-Difluorobenzyl)oxy]-2-methyl-N-[(2R)-1-(morpholin-4-yl)hexan-2-yl]imidazo[1,2-a]-pyridine-3-carboxamide]
24 | 1.00 µM | CCCC[C@H](CN1CCCC1)NC(=O)c1c(C)nc2c(OCc3c(F)cccc3F)cccn12 [Example 66, ent-8-[(2,6-difluorobenzyl)oxy]-2-methyl-N-[(2R)-1-(pyrrolidin-1-yl)hexan-2-yl]imidazo[1,2-a]-pyridine-3-carboxamide]
25 | 0.30 µM | CCCC[C@H](CN1CCN(C)CC1)NC(=O)c1c(C)nc2c(OCc3c(F)cccc3F)cccn12 [Example 67, ent-8-[(2,6-difluorobenzyl)oxy]-2-methyl-N-[(2R)-1-(4-methylpiperazin-1-yl)hexan-2-yl]imidazo[1,2-a]pyridine-3-carboxamide]
26 | 0.30 µM | CCCC[C@H](CN(C)C)NC(=O)c1c(C)nc2c(OCc3c(F)cccc3F)cccn12 [Example 68, ent-8-[(2,6-difluorobenzyl)oxy]-N-[(2R)-1-(dimethylamino)hexan-2-yl]-2-methylimidazo[1,2-a]-pyridine-3-carboxamide]

Source: patent publication US20150274719A1, “AMINO-SUBSTITUTED IMIDAZO[1,2-A]PYRIDINECARBOXAMIDES AND THEIR USE” (BAYER PHARMA AKTIENGESELLSCHAFT, priority 2012, published 2015)
